In patent US20240342121A1, “THE USE OF BETA-HYDROXYBUTYRATES FOR THE TREATMENT OR PREVENTION OF ANEURYSMS AND DISSECTIONS” (priority 2021, published 2024):
“Also recorded” adds a separate entry of the source.

Assays:
[1] = system: angiotensin II (AII)-induced AAA; test: AII-induced AAA mouse model, post-treatment; assay type: in vivo
Description: To determine if senescence is a major cause of aneurysm development, the association between senescence and aneurysms using the angiotensin II (AII)-induced AAA model was investigated. Mice were infused AII for four weeks using osmotic mini-pump implantation into Apoe^−/− transgenic mouse.
To investigate the therapeutic potential of ketotherapy for abdominal aortic aneurysm (AAA), Ketogenic-diet (KD) and Ketone-ester (KE) were provided to angiotensin II (AII)-induced mouse model of AAA (FIG. 6). […] After completing AII infusion, the mice were post-treated with KD and KE for two to four weeks.
To investigate the time-dependent reduction of aorta diameter, the inner diameter of the aorta using ultrasound analysis was measured.

normal SMCs (NC) = test: Caspase 3 activity assay on normal SMCs; assay type: cell-based; details: FIG. 2I
Protocol: FIGS. 2A-2L. (a) Cytotoxicity assay of normal smooth muscle cells (NS) and senescent smooth muscle cells (SMCs). Replicative senescent SMCs (RS) and premature senescent SMCs, stimulated by H2O2 (HP), arsenic (Ars), and Nutlin 3a (Nut) treatment were treated with βHB, s-βHB, and ABT-737. (b) Flow cytometry analysis of apoptosis by βHB or s-βHB in radiation (10 Gy)-induced senescent SMC. (c) Quantitation of apoptotic cell and senescent cell after treating βHB and s-βHB in radiation-induced senescent SMC. (d) Representative aorta image of AII-infused mice with post-treatment of ABT-737, βHB and s-βHB. (e) External diameter of abdominal aorta infused with AII and post-treated with ABT-737 βHB and s-βHB. (f) SA-βGal activity assay of the whole aorta infused with AII, and post-treated with ABT-737, KD, or KE. (g) Quantitation of senescent area on aorta of AII-infused mice, and post-treated with KD, KE and ABT-737. (h) TUNEL assay on the abdominal aorta of AII infused mice, and treated with ABT-737, βHB, or s-βHB. SM-α Actin (SMA) and DAPI are co-stained after TUNEL reaction. (i) Caspase 3 activity assay on normal SMCs (NC) treated with βHB, or s-βHB, and ABT-737 comparing to normal cells pretreated with Nutlin-3a. (j) Caspase 3 activity assay on senescent SMCs (SNC) treated with βHB, or s-βHB, and ABT-737 compared to senescent cells pretreated with pifithrin-α. (k) Western blot analysis for p53 and puma expression on abdominal aorta tissue from mice treated with AII or KE. (I) Immunohistochemistry staining for puma expression on abdominal aorta infused by AII and post-treated with KE.
To overcome the anti-apoptotic barrier of senescence cells, senolytics usually target p53/Bcl2 cascades. Moreover, p53 is considered as a barrier to prevent apoptosis in senescence cells. Therefore, it was investigated if βHB-mediated apoptosis is p53 dependent. […] To further validate p53 dependent apoptosis on AAA, p53 activation and puma expression were investigated. […] In addition, inflammatory response accompanying the apoptosis of senescence cells was observed specifically in the abdominal aorta tissue, while systemic inflammation decreased during ketotherapy (FIGS. 10A-F). […] Ketotherapy can lower the blood pressure caused by AII infusion, which is not the case with ABT-737 (FIGS. 10H-J).

[2] = system: angiotensin II (AII)-induced AAA; test: AII-induced AAA mouse model, post-treatment; assay type: in vivo; details: injection every other day for two weeks, FIG. 2E
[3] = Metabolic alterations by post-treatment; assay type: in vivo, mouse; details: four weeks, FIG. 7
Description: In order to identify the primary factors for reversing AAA formation, metabolic alterations by post-treatment were investigated. […] Thus, abnormal lipid metabolism caused by KD is unlikely required or helpful for AAA recovery.

[4] = system: AII-induced AAA development; test: Pretreatment with ketotherapy in AII-induced AAA; assay type: in vivo, mouse; details: FIG. 8A-C
Description: Senescence is considered to be major risk factor that promotes AAA development. […] To determine whether vascular senescence is critical for AAA formation, senescence was prevented by pretreatment with ketotherapy.
(§1) To confirm the possibility that the therapeutic effect of βHB on AAA is not only applied to AII-induced AAA, the CaCl2)-induced AAA animal model was also examined as well (FIG. 5A).

CaCl2-induced AAA = CaCl2-induced AAA animal model, post-treatment; assay type: in vivo, mouse
Protocol: FIGS. 5A-5J. (a) Representative image of aorta which developed CaCl2)-induced AAA, and post-treated with KD, KE, βHB, s-βHB, or ABT-737. KD is provided to mice for 4 weeks, KE is administrated with drinking water, βHB, s-βHB or ABT-737 are IP injected for 2 weeks with 48h intervals. (b) Incidence of AAA by CaCl2) treatment and proportion of mice recovered from the AAA after post-treatment of KD, KE, βHB and s-βHB for 2 weeks. (c) Time-dependent observation of inner diameter after CaCl2) treatment and post-treatment of KD or KE (28˜56 days after surgery). (d) Comparison of ultrasound images of CaCl2)-induced AAA to the identical aorta post-treated with βHB for 2 weeks. (e) H&E staining of aorta from the mice developed with CaCl2)-induced AAA, and post-treated with KD, KE, βHB, and s-βHB. (f) SA β-Gal activity assay on aorta which developed CaCl2)-induced AAA, and post-treated with KD, KE, βHB, s-βHB, or ABT-737. (g) Quantitation of senescent area on aorta developed with CaCl2)-induced AAA, and post-treated with KD, KE, βHB, s-βHB. (h) Verhoeff Van Gieson/EVG staining of abdominal aorta developed with CaCl2)-induced AAA, post-treated with KD, KE, βHB and s-βHB. (i) Average number of elastic fibers on abdominal aorta presented at FIG. 5H. (j) Measurement of Pulse Wave Velocity (PWV) on CaCl2)-infused mice with post-treatment of KD, KE, βHB, and s-βHB.
as §1
To further validate the therapeutic efficacy of s-βHB on aneurysms, we used a CaCl2-induced AAA animal model as well as an angiotensin II infusion model. […] Two-way ANOVA, s-βHB vs βHB, #P<0.01, n=10. Since the elimination of senescent SMCs is critical for the recovery of AAA, we investigated that s-βHB is also effective to remove senescent cells in CaCl2)-induced aneurysms. […] Student's T-test for s-βHB vs βHB, ^#P<0.05, n=8.

[5] = system: aortic dissection (TAD, AAD); test: BAPN + AngII mouse model of aortic dissection; assay type: in vivo
Protocol: (§2) (a) schematic description of aortic dissection model and ketone treatment. Five-week-old C57BL/6 mice were continuously treated with β-aminopropionitrile (BAPN, 3 g/L/day in drinking water) for 28 days. To test the impacts of ketone body, BAPN-treated mice at day 17 to day 31 were given ketone ester (KE, D-BHB 1-3 butanediol monoester) (20 g/L and 50 gL at 5 mL per day) in drinking water. Further, the BAPN-treated mice, with or without ketone treatment, were continuously infused with angiotensin (AngII, 1.44 mg/kg/day) for three days via subcutaneously implanted osmotic pumps). Three days after AngII infusion, the mice were euthanized to assay for aortic dissection.
as §2, with “Five week old C57BL/6” for “(a) schematic description of aortic dissection model and ketone treatment. Five-week-old C57BL/6”, “drinking water))” for “drinking water)”, “50 g/L)” for “50 gL at 5 mL per day)”, “euthanized for” for “euthanized to”, “assay” for “assay for”

[6] = Soto-Mota et al. 2019; cited from earlier work

CN(C)CC[C@H](CSc1ccccc1)Nc1ccc(S(=O)(=O)NC(=O)c2ccc(N3CCN(Cc4ccccc4-c4ccc(Cl)cc4)CC3)cc2)cc1[N+](=O)[O-] [ABT-737, reference compound]
TUNEL assay, apoptosis of senescent plaque in the aneurysm ([1]; FIG. 2H): induced targeted apoptosis of senescent plaque
branched elastic fibers, Verhoeff Van Gieson/EVG stain ([1]; FIG. 3C): less branched elastic fibers
number of elastic layers / elastic recovery ([1]; FIG. 3D): less effective on elastic recovery
aortic dissection ([1]; blood clots inside aneurysm plaque, FIG. 3B): caused aortic dissection
volume of aneurysm plaque ([1]; injected): successfully reduced
AAA on whole aorta images ([1]; injected every other day for two weeks, FIG. 2D): successfully rescued
mice with abdominal rupture resulting in sudden death ([1]; injected mice, FIG. 3A): 30%
apoptosis in normal cells after p53 stabilization (normal SMCs (NC); after p53 stabilization by Nutlin 3a): triggers apoptosis
apoptosis in normal cells (NC) (normal SMCs (NC); without Nutlin 3a): did not induce apoptosis
external diameter of the abdominal aorta [2]: significantly reduced

C[C@@H](O)CCOC(=O)C[C@@H](C)O [KE, [(3R)-3-hydroxybutyl] (3R)-3-hydroxybutanoate]
aneurysm formation, ultrasound images of identical mouse aorta ([1]; FIG. 1D): reverts aneurysm formation
abdominal aorta stiffness, Pulse Wave Velocity (PWV) ([1]; FIG. 3H, FIG. 18A): ameliorated vascular stiffness; also recorded: reversed aneurysm-associated aortic stiffness
SMC markers (HEXIM1, Calponin 1, SM α-Actin) and dedifferentiation markers (Oct4, MMP2), Western blot ([1]; abdominal aorta, post-treatment, FIG. 3E): reversed all the markers of dedifferentiation and simultaneously recovered SMC markers
degenerative markers in PVAT ([1]; abdominal versus thoracic PVAT, FIG. 3G): specifically reverses degenerative markers, col1A1, RUNX2, and PU.1 in abdominal perivascular adipose (PVAT), not in thoracic PVAT
recovered proportion of AII-induced AAA ([1]; post-treatment 2 to 4 weeks after 4 weeks AII infusion, C57Bl6 ApoE−/− mice, AAA incidence 60%, FIG. 1A): 26%
proportion of AII-induced AAA ([1]; post-treatment 2 to 4 weeks, FIG. 1A): successfully reduced
enlarged external diameter of AAA ([1]; post-treatment of KD and KE, FIG. 1C): decreased significantly
collagen network, Masson's trichrome staining ([1]; post-treatment, FIG. 3F): reconstituted at the perivascular area
myofibroblast, SM α-Actin and FSP co-staining in aortic wall ([1]; post-treatment, FIGS. 17A-17B): increases
p53 activation and puma expression on abdominal aorta ([1]; post-treatment, Western blot and IHC, FIG. 2K): activated phosphorylation of p53 and elevated puma expression
metabolic alterations (body weight, fat mass, blood glucose, TG, liver lipid, insulin resistance) [3]: did not cause metabolic changes such as insulin resistance
AII-induced AAA development [4]: strongly inhibited
recovery from CaCl2-induced AAA (CaCl2-induced AAA; FIGS. 5A and 5B): Effective recovery
AAA progression (CaCl2-induced AAA; post-treatment after four weeks, FIG. 5C): inhibited AAA progression
incidence of TAD ([5]; 20 g/L and 50 g/L in drinking water, day 17 to day 31, FIG. 19B): significantly reduces
incidence of AAD ([5]; 20 g/L and 50 g/L in drinking water, day 17 to day 31, FIG. 19C): significantly reduces
survival rate ([5]; high dose 50 g/L, FIG. 19D): significantly increase
metabolic fate (hydrolysis) [6]: complete enzymatic hydrolysis to release R-βHB and R-butane-1,3-diol
